{"source": "patent US20130039928A1", "about": "“COMPOSITIONS AND METHODS FOR REVERSING CORTICOSTEROID RESISTANCE OR TREATING RESPIRATORY INFECTIONS” (priority 2010, published 2013)", "key": {"elastase": {"system": "elastase", "conditions": "alveolar macrophages treated with or without sulforaphane"}, "HDAC2": {"system": "HDAC2", "protocol": "Whether sulforaphane increase HDAC2 activity in lungs of cigarette smoke exposed mice was determined.\nMice (C57BL/6 strain, 8-10 weeks old) were used for the studies. Exposure to CS (1 month) was carried out as described previously (Malhotra, D., et al., Am J Respir Crit Care Med 178, 592-604 (2008)). Residential peritoneal macrophages (PMs) isolation was carried out as described previously (Singh, A., et al., PLoS Med 3, e420 (2006)). Alveolar macrophages from mouse were isolated from bronchoalveolar lavage (BAL) fluid (Crimi, E., et al., Free Radic Biol Med 40, 398-406 (2006)).\n(§1) HDAC activity was measured using a fluorescent derivative of ε-acetyl-lysine from Enzo life sciences (Farmingdale, N.Y.) according to the manufacturer's recommendations. HDAC2 was immunoprecipitated for analysis of enzymatic activity."}, "[1]": {"system": "nontypeable Haemophilus influenza (NTHI)", "conditions": "wild-type mice after 6 months of chronic exposure to cigarette smoke", "protocol": "(§2) C57BL/6J mice were housed under controlled conditions for temperature and humidity, using a 12-hour light/dark cycle. At 8 weeks of age, mice were exposed to CS for (2.5 h/day for 5 days/week) for 1 week or 6 months using a machine that produces cigarette smoke (TE-10, Teague Enterprises) and reference cigarettes (2R4F) with a total suspended particle concentration of 250 mg/m^3 as previously described (T. E. Sussan et al., Proc Natl Acad Sci USA, (Dec. 22, 2008)). Following exposure to CS, mice were inoculated with PA or NTHI at a dose of 10^3 CFU in 50 μl of PBS intranasally. For sulforaphane administration (0.5 mg/mouse of R, S-sulforaphane in PBS), a nebulizer (Aerogen, Inc., Galway, Ireland) designed specifically for small animals was used.\nBAL fluid analysis and cell counts with differential staining were carried out as described previously (T. Rangasamy et al., J Clin Invest 114, 1248 (November, 2004)). For analyzing bacterial colonization in lungs, 100 μl of BAL fluid were diluted serially in sterile 0.9% NaCl and aseptically plated and cultured on appropriate (blood [PA] or chocolate [NTHI]) agar plates. After 24 h, the number of CFU was counted."}, "IL-8": {"system": "IL-8", "assay": "Corticosteroid responsiveness: basal and LPS-induced IL-8 secretion by alveolar macrophages", "assay_type": "cell-based, human", "protocol": "(§3) For inducing corticosteroid resistance, PMs were exposed to cigarette smoke condensate (CSC, 100 μg/ml; Murty Pharmaceuticals, Lexington, Ky.) for 16 h. Exposure to S-nitrosoglutathione (GSNO, 10 μM) was limited to 4 h. […] For assessing corticosteroid responsiveness, macrophages were incubated with dexamethasone (1 μM, Sigma) for 1 h followed by LPS (100 ng/ml, Sigma) for additional 4 h.\nFor human IL-8 and mouse IL-6 and MCP-1 proteins, Quantikine ELISA kits from R&D systems (Minneapolis, Minn.) were used according to the manufacturer's instructions."}, "SNO proteins": {"system": "SNO proteins", "conditions": "anti-SNO immunoblot, verified by DAN assay, vs vehicle", "protocol": "S-nitrosylated proteins were detected by using the nitrate/nitrite fluorometric assay kit from Cayman chemicals (Ann Arbor, Mich.) according to the manufacturer's instructions. For HDAC2-specific nitrosylation detection, cells were lysed in buffer (50 mM Tris-HCl, pH 8.0, 150 mM NaCl, 1% Nonidet P-40, 0.5% deoxycholic acid, 0.1% SDS). These lysates were then subjected to immunoprecipitation by using an anti-HDAC2 antibody as described above. The immunoprecipitates were washed twice with lysis buffer and twice with PBS. The pellets were resuspended in 500 μL of PBS. After the addition of 100 μM HgCl2 and 100 μM DAN, the samples were incubated in the dark at 25° C. for 30 minutes, and 1 M NaOH was added. The generated fluorescent triazole from the reaction of the DAN with the NO released from the HDAC2 protein was measured by using an excitation wavelength of 375 nm and an emission wavelength of 450 nm. As a negative control, the antibody alone in lysis buffer was immunoprecipitated. The resulting background fluorescence intensity was subtracted for each experiment."}, "IL-8 gene": {"system": "IL-8 gene", "conditions": "sulforaphane treatment with DEX", "protocol": "as §3\n(§4) Total RNA was extracted from the cells by lysis and specific binding to a silica membrance (Qiagen RNeasy kit, Qiagen, Valencia, Calif.), and qRT-PCR was performed by using primers and probe sets for human IL-8, NQO1, GCLM, and iNOS (Assay-on-Demand, Applied Biosystems, Foster City, Calif.). A real-time fluorescent PCR system (ABI 7000 Taqman system, Applied Biosystems) was used to perform these assays. β-actin was used as the normalization control."}, "[2]": {"system": "CD80/86, MHC-11, CD14 and CD206", "conditions": "FACS", "protocol": "To examine the contribution of MARCO in mediating bacterial phagocytosis by alveolar macrophages following sulforaphane treatment, an antibody-depletion approach was employed. The specificity of anti-MARCO antibody was validated by immunoblot analysis (FIG. 12). […] To assess the effect of sulforaphane on the phenotype of macrophages, CD80/86, MHC-11, CD14 and CD206 were analyzed by FACS."}, "NO": {"system": "NO", "assay": "NO levels and iNOS expression in alveolar macrophages", "assay_type": "cell-based, human", "conditions": "COPD alveolar macrophages, vs vehicle", "protocol": "as §3, §1, §4"}, "Pseudomonas aeruginosa": {"system": "Pseudomonas aeruginosa", "conditions": "0.5 mg/mouse/day nebulizer, three days, 4 hours after PA, compared to vehicle", "protocol": "The efficacy of sulforaphane to improve bacterial phagocytosis and clearance in the lungs of mice exposed to cigarette smoke was determined. After 6 months or 1 week of CS or air exposure, mice were treated with sulforaphane and or vehicle (0.5 mg/mouse/day) for three consecutive days using an Aeroneb® nebulizer (Aerogen, Inc., Galway, Ireland). Mice were challenged intranasally with Pseudomonas aeruginosa 24 hours after the last dose of sulforaphane, and bacterial burden in BALF was analyzed 4 hours later.\nas §2, with “For sulforaphane administration (0.5 mg/mouse of R, S-sulforaphane in PBS), a nebulizer (Aerogen, Inc., Galway, Ireland) designed specifically for small animals was used.” left out\nBAL fluid analysis and cell counts with differential staining were carried out as described previously (T. Rangasamy et al., J Clin Invest 114, 1248 (November, 2004)). […] After 24 h, the number of CFU was counted."}}, "note": "“Also recorded” adds a separate entry of the source. Where two headings read alike, the source gives them in different places."}
{"smiles": "C[S+]([O-])CCCCN=C=S", "note": "(stereo not drawn) [sulforaphane]", "values": [{"measurement": "elastase activity in cell free media", "setting": "elastase", "value": "inhibition of elastase activity"}, {"measurement": "levels of SNO-HDAC2 in lungs", "setting": "HDAC2; CS-exposed mice", "value": "reduced the levels of SNO-HDAC2"}, {"measurement": "GSH levels in lungs", "setting": "HDAC2; cigarette smoke-exposed mice", "value": "increased GSH levels"}, {"measurement": "HDAC2 enzymatic activity in lungs", "setting": "HDAC2; cigarette smoke-exposed mice", "value": "significant increase"}, {"measurement": "HDAC2 protein in lungs", "setting": "HDAC2; cigarette smoke-exposed mice", "value": "significant increase"}, {"measurement": "total HDAC enzymatic activity in lungs", "setting": "HDAC2; cigarette smoke-exposed mice", "value": "significant increase"}, {"measurement": "bacterial colonization (NTHI) in the lungs", "setting": "[1]", "value": "inhibited bacterial colonization"}, {"measurement": "DEX sensitivity (histone acetylation on IL-8 promoter, IL-8 expression)", "setting": "IL-8; in the presence of buthionine sulfoximine (BSO)", "value": "failed to improve DEX sensitivity"}, {"measurement": "IL-8 levels", "setting": "IL-8; sulforaphane alone, basally and after LPS treatment", "value": "significantly reduced IL-8 levels"}, {"measurement": "DEX's inhibitory effect on basal and LPS-induced IL-8 secretion (fold reduction)", "setting": "IL-8; sulforaphane treatment then DEX, P<0.01, N=25 patients", "value": 5, "unit": "fold"}, {"measurement": "SNO proteins in lysates", "setting": "SNO proteins", "value": "significant reduction in SNO proteins"}, {"measurement": "expression of the IL-8 gene", "setting": "IL-8 gene", "value": "concomitant reduction"}, {"measurement": "expression of other markers (MHC-11, CD14)", "setting": "[2]", "value": "no significant difference"}, {"measurement": "expression of receptors CD80/86 and CD206", "setting": "[2]", "value": "Moderate suppression"}, {"measurement": "NO levels", "setting": "NO", "value": "significantly lower levels; also recorded: suppressed NO generation"}, {"measurement": "iNOS expression", "setting": "NO", "value": "significantly lower levels"}, {"measurement": "bacterial burden in lungs", "setting": "Pseudomonas aeruginosa; 1 week CS", "value": "significantly reduced bacterial burden"}, {"measurement": "bacterial burden in lungs", "setting": "Pseudomonas aeruginosa; 6 months CS", "value": "significantly reduced bacterial burden"}]}
